# Where two headings read alike, the source gives them in different places.
# What was measured:
# HUVEC = HUVEC Cell Viability (CV) assay; format: cell-based, human; settings: Homo sapiens, alamarBlue
# Method: Cells are seeded at 10,000 cells/well in 96-well plates in HUVEC specific cell culture media. Cells are plated and cultured overnight (16-24 h) at 37° C. After the overnight culture, cells are washed and fed with the Assay Medium. Test compounds are applied and incubated with the cells for the designated time period, after which the cell viability is measured by alamarBlue method. […] The final DMSO concentration is 1%.
# Fluorescence readings are recorded after the test compound and alamarBlue incubation. The excitation and emission wavelengths are 530 nm and 590 nm, respectively.
# The percent of control is calculated by comparing the readings in the presence of the test compound to the vehicle control. Subsequently, the percent inhibition is calculated by subtracting the percent control activity from 100. IC50 values (concentration causing a half-maximal inhibition of the control value) are determined by non-linear regression analysis of the concentration-response curves using the Hill equation.
# The reference compound used for this assay is Staurosporine.
# [1] = system: HUVEC (human umbilical venous endothelial cells); test: HUVEC Tube Formation assay; format: cell-based
# Method: HUVEC (human umbilical venous endothelial cells, 1.5×10^4/well, ATCC CRL-1730) are placed in an earlier prepared 96-well plate. Test substance and/or vehicle is then added to each well in a final concentration of 0.4% DMSO in growth medium under an atmosphere of 5% CO2 at 37° C. After an 18 h incubation period, morphology of the endothelial cell tubes, which resemble a capillary-like network, are evaluated by a confocal high-content imaging system. Disruption (anti-angiogenesis) of total tube length is measured from each photograph and determined relative to the vehicle control group. […] Compounds are screened at 30, 3, 0.3, 0.03 and 0.003 μM (or μg/mL) in triplicate.
# [2] = system: SC-hCMs (stem cell cardiomyocytes); test: Cardiomyocyte assay (CRL), iPSC cardiomyocytes; format: cell-based, human; settings: for ΔΔ Na Spike Amp at 10 μM, 48 h (%): corrected by time matched controls
# Method: All measurements were performed at physiological temperature in a tissue culture incubator (37° C.; 5% CO2). Test article, positive controls and vehicle were added in a sterile tissue culture hood.
# At least 10 h before compound addition SC-hCMs were exposed to the fresh culture medium. Before compound addition a one-minute recording of field potentials and impedance signals (baseline) was obtained. Test articles, vehicle and positive controls were added as a 2× concentration. One-minute recordings were obtained 0.5, 1, 2, 24 and 48 h after test article addition.
# At the time of drug application, culture medium was added to an independent 96 well plate that was incubated in a tissue culture incubator for 48 h. This culture medium was used as the blank of the cTnI release assay.
# After the 48 h exposure recording, 150 μL of each well was centrifuged to remove debris. The supernatant was collected and frozen for later cTnI content analysis using an ELISA plate according the manufacturer's instructions (Abcam, cat #ab200016).
# Data was stored on the Charles River Laboratories computer network for off-line analysis. Data acquisition was performed using RTCA Cardio Software.
# Data analysis was performed using RTCA Cardio Software, Microsoft Excel and Matlab scripts. Data were reported as mean±SEM.
# The following field potential parameters were quantitated: Sodium Spike amplitude, Sodium Spike Rate, field potential duration (FPD), Bazett corrected field potential duration (FPDcB), and dysrhythmic events if present.
# The following impedance parameters were quantitated: Cell Index, peak amplitude, relaxation from peak to 50% amplitude (Rel50) and twitch duration.
# The sodium spike is the voltage signal produced by the propagation of the depolarizing wave (positive peak) and the local activation of sodium channels (negative peak). The sodium spike amplitude is the voltage difference (in […]) between the positive and negative peaks of the sodium spike. The Sodium Spike Rate is a measure of the rate of sodium spike generation (spikes/min) produced by the spontaneous beating of stem cell cardiomyocytes.
# Abnormal rhythm activity was characterized by the presence of the following proarrhythmic markers:
# Triggered activity: Triggered activity (TA) is activity characterized by the presence of voltage oscillations during the repolarization period (Early After Depolarizations, EADs) or after the repolarization is completed (Delayed After Depolarizations, DADs). They are produced by different mechanisms. EADs are due to reactivation of sodium and calcium currents due to prolongation of the action potential. DADs are due to transient releases of calcium from intracellular calcium stores. Both EADs and DADs can trigger action potentials (ectopic beats, EB).
# Impedance instability: Impedance instability (II) consist of small oscillations of the impedance signal during the slower relaxation phase of the impedance twitch sometimes associated with small oscillations of the field potential (FPO). […] II informs about the possibility of drug-induced delayed repolarization setting the background where more robust proarrhythmic markers like EADs and DADs occur.
# The SEM of the difference was calculated according to the following equation ΔΔSEM=(SEMtreatment2+SEMcontrol2)0.5.
# The statistical analysis includes 1) a Student paired t-test to evaluate the changes respect to baseline and, 2) a multi-comparison analysis (Dunnett's test) of A % changes respect to time matched controls. An alpha probability of 0.05 was considered significant.
# [3] = system: murine Hb9-GFP+ motor neurons in co-culture with ALS patient iAstrocytes; test: Human iAstrocyte - murine Hb9-GFP+ motor neuron co-culture; format: cell-based, human iAstrocytes; settings: for rescue of motor neuron survival in co-culture with patient-derived iAstrocytes (FIG. 3): 72 hours co-culture, dose dependant, maximum responses close to positive control (1 μM Nilotinib); for efficacy at very high concentrations (motor neuron survival): potentially due to compound toxicity
# Description: iNPCs (induced Neuronal Progenitor Cells) were derived from ALS patient fibroblasts as described previously (Meyer et al. 20148). iNPCs were differentiated into iAstrocytes by culturing in iAsrocyte media for at least 5 days. Murine motor neurons expressing the green fluorescent protein (GFP) under the Hb9 motor neuron-specific promoter (called from now on Hb9-GFP+) were differentiated from murine embryonic stem cells via embryoid bodies (EBs), as previously described (Haidet-Phillips et al. 20119, Wichterle et al. 200210).
# iNPCs and mESC were split into iAstrocyte media and mEB media respectively on the same day, such that iAstrocytes and motor neurons will have both differentiated for 7 days when seeded together in co-culture.
# Changed media on iAstrocytes, and split using accutase if 90-100% confluent 3 days after seeding from iNPCs. iAstrocytes were left a further 2 days in iAstrocyte media until seeded onto 384-well plates.
# Diluted fibronection 1:400 in PBS, and 5 μL added per well. The plate was incubated with fibronectin at room temp for at least 5 mins.
# The media was removed from iAstrocytes, and washed in PBS. 1 mL accutase per 10 cm plate was added, and incubated at 37° C. for 4 mins. The plate was tapped to dislodge any remaining iAstrocytes. The iAstrocytes were resuspended in iAstro media, and centrifuged at 200×g for 4 mins. The supernatant was removed, the falcon was flicked to vortex the cells, and resuspended the cells in an appropriate amount of iAstrocyte media. Counted cells using the haemocytometer, and diluted cells to an appropriate dilution for seeding. Seeded 1-2,000 iAstrocytes in 35 μL media on fibronectin-coated 384-well plates. Centrifuged 384-well plates at 1,760×rpm for 60 s using a PK120 (ALC) centrifuged (in neurogenetics) to collect media and cells to base of wells. Plates were left for 24 h for iAstrocytes to adhere to plate.
# Drugs were delivered in 100% drug-grade DMSO to iAstrocyte media using an Echo550 liquid handler (Labcyte). 384-well plates were centrifuged at 1,760×rpm for 60 s using a PK120 (ALC) centrifuge.
# 2 plates of EBs were collected in a 50 mL tube and centrifuged for 4 mins at 200×g. The supernatant was removed from EBs after centrifugation, and washed in 10 mL PBS then centrifuged again for 4 mins at 200×g, and PBS wash removed.
# For each 50 mL tube, 2.75 mL EB dissociation buffer was added and then 250 μL 200 U/mL (10×) Papain. The solution was gently pipetted up and down 10 times, using a P1000 pipette, against the side of the falcon (EB pellet was not pipetted directly). 50 mL tube was put in 37° C. water bath and incubated for 5 mins. Tube removed every 3 mins and gently shaken. After 5 mins, additional 2 mL of EB dissociation and 100 μL 200 U/mL (10×) Papain were added, which was then pipette again 5 times with P1000 pipette, and returned to the water bath for another 5 mins. It was returned to water bath as before, and incubated for no longer than 15-20 mins.
# Centrifuged for 5 mins at 300×g. Each 50 mL tube, 2.7 mL EB dissociation was prepared, to which 300 μL FBS and 150 μL 0.5 mg/mL DNaseI was added. The supernatant was removed from dissociated EBs and 3 mL of the FBS/DNaseI mix was added, pipetted up and down with P1000 pipette about 5 times. 5 mL FBS was added very slowly to the bottom of the falcon containing the dissociated EBs. The supernatant was removed and the cells very gently resuspended in about 3 mL MN media (more used if the pellet is large) and filtered through a 40 μm filter. 1 mL extra MN media was added to wash the filter.
# 2,500 murine Hb9-GFP+ motor neurons were seeded per well in 10 μL motor neuron media on top of the pre-treated iAstrocytes. 384-well plates were centrifuged at 1,760×rpm for 60 s using a PK120 (ALC) centrifuge.
# Day8 15 μL motor neuron media were added per well. Hb9-GFP+ motor neurons were imaged using an INCELL analyser 2000 (GE Healthcare)—day 1 of co-culture. […]
# [4] = system: α-synuclein in ReNcell VM Neuronal cells; test: Modulation of α-synuclein aggregation; format: cell-based; settings: for amount of α-synuclein present in ReNcell VM neuronal cells (FIG. 4): 6 days of compound treatment, antibodies Syn205 and MJF-14; for IC50: ReNcell VM, 100% = reduction equal to 10 μM KU0063794, 0% = 0.1% DMSO
# Method: Compounds were assessed for their ability to modulate α-synuclein aggregation. ReNcell VM Neuronal cells were transduced with α-synuclein encoded adenovirus, and compounds were added after 24 hours. After 72 hours, compound was refreshed. After an additional 72 h, cells were fixated (a total of 6 days of compound treatment). Two distinct α-synuclein antibodies were added (Syn205 and MJF-14), imaging was performed on IN Cell 2200 at 10× magnification. Immunoreactivity is quantified by a high content algorithm. Compound data is normalized to a negative control (0.1% DMSO) and a positive control (10 μM KU0063794; CAS 938440-64-3).
compound,measurement,setting,value
"Cc1ccc(C(=O)Nc2ccc(CN3CCN(C)CC3)c(C(F)(F)F)c2)cc1C#Cc1cnc2cccnn12 [Comparative Example 2, 3-(imidazo[1,2-b]pyridazin-3-ylethynyl)-4-methyl-N-[4-[(4-methyl-1-piperazinyl)methyl]-3-(trifluoromethyl)phenyl]benzamide, reference compound]",IC50,HUVEC,320 nM
same,GI50,"[1]; 18 h, read-out: Tube formation GI50 (μM)",1.2 µM
same,"Proarrhythmic Markers at 10 μM, 48 h","[2]; 10 μM, 48 h",Q and RV
same,"ΔΔ Na Spike Amp at 10 μM, 48 h (%)","[2]; 10 μM, 48 h",(cells quiescent)
"Cc1cn(-c2cc(NC(=O)c3ccc(C)c(Nc4nccc(-c5cccnc5)n4)c3)cc(C(F)(F)F)c2)cn1 [Comparative Example 3, 4-methyl-N-[3-(4-methylimidazol-1-yl)-5-(trifluoromethyl)phenyl]-3-[(4-pyridin-3-ylpyrimidin-2-yl)amino]benzamide, reference compound]",IC50,HUVEC,3600 nM
same,GI50,"[1]; 18 h incubation, read-out: Tube formation GI50",> 10 µM
same,"Proarrhythmic Markers at 10 μM, 48 h","[2]; 10 μM, 48 h",II and TA
same,"ΔΔ Na Spike Amp at 10 μM, 48 h (%)","[2]; 10 μM, 48 h",−96.2%
"Cc1ccc(C(=O)Nc2cnn(C(C)(C)C)c2)cc1C#Cc1cccnc1 [Example 10, N-(1-tert-butyl-1H-pyrazol-4-yl)-4-methyl-3-[2-(pyridin-3-yl)ethynyl]benzamide]",rescue of motor neuron survival in co-culture with patient-derived iAstrocytes (FIG. 3),[3],rescue motor neuron survival
"Cc1ccc(C(=O)Nc2cnn(C(C)C3CC3)c2)cc1C#Cc1cccnc1 (centres unmarked) [Example 17, N-[1-(1-cyclopropylethyl)-1H-pyrazol-4-yl]-4-methyl-3-[2-(pyridin-3-yl)ethynyl]benzamide]",rescue of motor neuron survival in co-culture with patient-derived iAstrocytes (FIG. 3),[3],rescue motor neuron survival
same,efficacy at very high concentrations (motor neuron survival),[3],reduction in efficacy at very high concentrations
"Cc1ccc(C(=O)Nc2cnn(C(C)C)c2)cc1C#Cc1cccnc1 [Example 24, N-(1-isopropylpyrazol-4-yl)-4-methyl-3-[2-(3-pyridyl)ethynyl]benzamide]",rescue of motor neuron survival in co-culture with patient-derived iAstrocytes (FIG. 3),[3],rescue motor neuron survival
same,efficacy at very high concentrations (motor neuron survival),[3],reduction in efficacy at very high concentrations
same,amount of α-synuclein present in ReNcell VM neuronal cells (FIG. 4),[4],dose dependant reduction
same,IC50,[4],1000 to 10000 nM
"Cc1ccc(C(=O)Nc2cc3n(n2)CCC3(C)C)cc1C#Cc1cccnc1 [Example 26, N-(4,4-dimethyl-5,6-dihydropyrrolo[1,2-b]pyrazol-2-yl)-4-methyl-3-[2-(3-pyridyl)ethynyl]benzamide]",rescue of motor neuron survival in co-culture with patient-derived iAstrocytes (FIG. 3),[3],rescue motor neuron survival
same,amount of α-synuclein present in ReNcell VM neuronal cells (FIG. 4),[4],dose dependant reduction
same,IC50,[4],1000 to 10000 nM
"Cc1cn(-c2cc(NC(=O)c3ccc(C)c(Nc4nccc(-c5cccnc5)n4)c3)cc(C(F)(F)F)c2)cn1 [nilotinib, Nilotinib]",effect on sodium spike amplitude vs. control (given as reduction for nilotinib and Example 39),[2]; 10 μM after 48 hours,96.2%
same,proarrhythmic markers observed,"[2]; 10 μM, 48 h",triggered activity and impedance instability
